ChEMBL document CHEMBL4425152, “New P2X3 receptor antagonists. Part 1: Discovery and optimization of tricyclic compounds” (Bioorg Med Chem Lett, 2016)

assay: in vitro; conditions: human, Caco-2

Row | Papp [×10⁻⁶ cm/s] | Compound
1 | 46.8 | COc1ccc(OC)c(CCn2cnc3sc4c(c3c2=O)CCC(C(=O)N(C)C)C4)c1 (stereo not drawn)
2 | 30.6 | COc1cc(C(C)C)c(Oc2cnc(N)nc2N)cc1I
3 | 0.7 | COc1cc(C(C)C)c(Oc2cnc(N)nc2N)cc1S(N)(=O)=O [GEFAPIXANT]
